Structures are written as SMILES. Counter-ions that a name gives are not always drawn.

Series [1] in a line: Acute toxicity study in animals (oral LD50). To be noted: mouse, in vivo, male ICR mice, intragastric administration, observed 14 days, hydrochloride salts. An excerpt: Male ICR mice weighed 23±2 g, clean grade, were selected. The route of administration was intragastric (ig) administration, which is consistent with the intended oral route for clinical use.
Mice were randomly divided into 8 groups by weight: the blank control group, Example 1 group, Example 5 group, Example 11 group, Example 12 group, Example 13 group, Example 14 group and control group. Among these, the control group received amino-combretastatin serinamide hydrochloride as the control (hereinafter referred to as control).
Preparation of the compounds used in the example groups: The compounds obtained in Example 1, Example 3. Example 4. Example 5. Example 6. Example 7. Example 8. Example 9. Example 10. Example 11. Example 12, Example 13 and Example 14 were prepared into hydrochloride salts according to the method disclosed in Example 2.
Pre-treatment: […] were deprived of food but not water for 12 h before the study. and randomized into groups of 10 by body weight. The treatment groups were intragastrically administered once at 0.25 mL/10 g body weight, and the water control group received an equivalent amount of distilled water through intragastric administration. The LD100 value (the amount for 100% death), LD0 (the amount for 0 death) and the corresponding range r value between the dose groups were calculated, and LD50 was determined.
Study procedures: 160 mice were randomized into 8 groups of 20 mice by body weight. After deprivation of food but not water for 12 h before the study, each group was intragastrically given the compound once at 0.3 mL/10 g body weight. Since no death was observed after 12 h, the second dose was given. The control group received equivalent volumes of water. The daily dose of each group was calculated; the control group received equal volumes of water and was subjected to an acute toxicity study for observation and the body weight of the mice was recorded daily for 14 days.

Series [2] has as its system human liver cancer cells Bel-7402. The series can be described thus: Efficacy study in nude mouse with xenograft tumor, Bel-7402. To be noted: BALB/cA-nude mice, subcutaneous xenograft, 50 mg/kg intragastric once daily for 21 days, dosed as hydrochloride; for inhibition in vivo at 50 mg/kg: Mus musculus, Bel-7402, sc, 504 h, read-out: % tumor inhibition (D21) Bel-7402. The class given is in vivo. How it is done: (§1) BALB/cA-nude mice aged 6 to 7 weeks were purchased from Shanghai Slac Laboratory Animal Co., Ltd. The nude mice were subcutaneously grafted with human liver cancer cells Bel-7402, colon cancer cells HT-29, gastric cancer cells SGC-7901 or non-small cell lung cancer cells A549. After the tumor grew to 100 to 250 mm^3, the animals were randomized (d0). The tumor volumes and body weights were measured twice or thrice a week, and the data were recorded. Tumor volume (V) was calculated as follows:
(§2) [formula] • wherein a and b represent length and width, respectively; T and C are the tumor volumes at the end of study; T0 and C0 are the tumor volumes at the start of study.
(§3) All samples were diluted to the desired concentration with 50% PEG400 in distilled water. The regimen was once daily for 21 days at 50 mg/kg mouse body weight through intragastric administration, and 50 mg/kg for the control. The compounds obtained in Examples 1, 3, 4, 5, 6, 7, 8, 9, 10, 11, 12, 13 and 14 and the control were prepared into corresponding hydrochloride as the dosing compounds according to the method disclosed in Example 2 to investigate their efficacy on human liver cancer cell Bel-7402, colon cancer cell HT-29, gastric cancer cell SGC-7901 or non-small cell lung cancer cell A549 xenograft tumors in nude mice and to compare the compounds with the control (prepared as in Example 16).

Series [3] relates to gastric cancer cells SGC-7901. Description: Efficacy study in nude mouse with xenograft tumor, SGC-7901. It counts as in vivo, human. To be noted: BALB/cA-nude mice, subcutaneous xenograft, 50 mg/kg intragastric once daily for 21 days, dosed as hydrochloride; for inhibition in vivo at 50 mg/kg: Mus musculus, SGC-7901, sc, 504 h, read-out: % tumor inhibition (D21) SGC-7901. The protocol: as §1, §2, §3
In general terms: A xenograft is tissue or cells of one species grown in another, often human tumour cells in immunodeficient mice.

Series [4] has as its system non-small cell lung cancer cells A549. Description: Efficacy study in nude mouse with xenograft tumor, A549. The note with it: BALB/cA-nude mice, subcutaneous xenograft, 50 mg/kg intragastric once daily for 21 days, dosed as hydrochloride; for inhibition in vivo at 50 mg/kg: Mus musculus, A549, sc, 504 h, read-out: % tumor inhibition (D21) A549. It counts as in vivo, human. The protocol:
as §1, §2, §3

The test system of another series is colon cancer cells HT-29. Description: Efficacy study in nude mouse with xenograft tumor, HT-29. It counts as in vivo, human. To be noted: BALB/cA-nude mice, subcutaneous xenograft, 50 mg/kg intragastric once daily for 21 days, dosed as hydrochloride; for inhibition in vivo at 50 mg/kg: Mus musculus, HT-29, sc, 504 h, read-out: % tumor inhibition (D21) HT-29. The protocol: as §1, §2, §3

On to `CCCCN(CCCC)CCC(=O)Nc1cc(/C=C\c2cc(OC)c(OC)c(OC)c2)ccc1OCC(F)(F)F` [Hydrochloride of Example 9], for which the median lethal dose (LD50) at 14 days in series [1] is 1000 mg/kg.

Turning to `CCOc1ccc(/C=C\c2cc(OC)c(OC)c(OC)c2)cc1NC(=O)CCNCC(OC)OC` [Hydrochloride of Example 14], the LD50 at 14 days in series [1] was 1000 mg/kg.

In the case of `COc1ccc(/C=C\c2cc(OC)c(OC)c(OC)c2)cc1NC(=O)CCN(CCO)CCO` [Example 12, (Z)-1-(3,4,5-trimethoxyphenyl)-2-((3-(bis(2-hydroxyethyl)amino)propionamide)-4-methoxyphenyl)ethylene], the inhibition in vivo at 50 mg/kg in series [2] was determined as 79%; in series [3], 77%; in series [4], 58%; in the series with colon cancer cells HT-29, 79%.

`CCCN(CCC)CCC(=O)Nc1cc(/C=C\c2cc(OC)c(OC)c(OC)c2)ccc1OCC(F)(F)F` [Example 7, (Z)-1-(3,4,5-trimethoxyphenyl)-2-((3-(bis(2-n-propyl)amino)propionamide)-4-trifluoroethoxyphenyl) ethylene]: the inhibition in vivo at 50 mg/kg is 81% in series [2], 65% in series [3], 66% in series [4] and 79% in the series with colon cancer cells HT-29.

In the case of `CCCN(CCC)CCC(=O)Nc1cc(/C=C\c2cc(OC)c(OC)c(OC)c2)ccc1OCC` [Example 1], the inhibition in vivo at 50 mg/kg in series [2] amounted to 92%; in series [3] it was 82%; in series [4], 69%; with colon cancer cells HT-29, 93%.

Consider `CCOc1ccc(/C=C\c2cc(OC)c(OC)c(OC)c2)cc1NC(=O)CCN(CC)CC` [Example 4, (Z)-1-(3,4,5-trimethoxyphenyl)-2-((3-(bis(2-ethyl)amino)propionamide)-4-ethoxyphenyl)ethylene], for which the inhibition in vivo at 50 mg/kg in series [2] was found to be 90%; in series [3] it was 76%; in series [4], 67%; in the series with colon cancer cells HT-29 it was 91%.

`CCC(C)N(CCC(=O)Nc1cc(/C=C\c2cc(OC)c(OC)c(OC)c2)ccc1OC(F)F)C(C)CC` (stereo not drawn) [Example 10, (Z)-1-(3,4,5-trimethoxyphenyl)-2-((3-(bis(2-n-butyl)amino)propionamide)-4-difluoromethoxyphenyl)ethylene]: in series [2], the “% tumor inhibition (D21) Bel-7402” value came to 86%. Further, in series [3], the “% tumor inhibition (D21) SGC-7901” value came to 73%. Also, in series [4], the “% tumor inhibition (D21) A549” value is on record as 60%. Further, in the series on colon cancer cells HT-29, the “% tumor inhibition (D21) HT-29” value came out at 81%.

With `CCCCN(CCCC)CCC(=O)Nc1cc(/C=C\c2cc(OC)c(OC)c(OC)c2)ccc1OCC` [Hydrochloride of Example 5], the 50% lethal dose (LD50) at 14 days in series [1] stood at 1200 mg/kg.

For `CCCCN(CCCC)CCC(=O)Nc1cc(/C=C\c2cc(OC)c(OC)c(OC)c2)ccc1OC` [Hydrochloride of Example 6], the LD50 in series [1] was found to be 900 mg/kg.

Regarding `CCCN(CCC)CCC(=O)Nc1cc(/C=C\c2cc(OC)c(OC)c(OC)c2)ccc1OCC` [Hydrochloride of Example 1, (Z)-1-(3,4,5-trimethoxyphenyl)-2-((3-(bis(2-n-propyl)amino)propionamide)-4-ethoxyphenyl)ethylene hydrochloride], the LD50 at 14 days in series [1] came out at 1200 mg/kg.

Consider `CCOc1ccc(/C=C\c2cc(OC)c(OC)c(OC)c2)cc1NC(=O)CCNCC(OC)OC` [Example 14, (Z)-1-(3,4,5-trimethoxyphenyl)-2-((3-(2,2-dimethoxyethylamino)propionamide)-4-ethoxyphenyl)ethylene], for which the inhibition in vivo at 50 mg/kg in series [2] is 82%; in series [3], 80%; in series [4], 66%; in the series with colon cancer cells HT-29, 71%.

Consider `CCOc1ccc(/C=C\c2cc(OC)c(OC)c(OC)c2)cc1NC(=O)CCNCC(F)F` [Example 13, (Z)-1-(3,4,5-trimethoxyphenyl)-2-((3-(2,2-difluoroethylamino)propionamide)-4-ethoxyphenyl)ethylene], for which the inhibition in vivo at 50 mg/kg came out at 82% in series [2], 72% in series [3], 63% in series [4] and 77% in the series with colon cancer cells HT-29.

`CCCN(CCC)CCC(=O)Nc1cc(/C=C\c2cc(OC)c(OC)c(OC)c2)ccc1OCC(F)(F)F` [Hydrochloride of Example 7]: the LD50 at 14 days in series [1] came out at 1200 mg/kg.

Consider `CCOc1ccc(/C=C\c2cc(OC)c(OC)c(OC)c2)cc1NC(=O)CCN(CCO)CCO` [Example 11, (Z)-1-(3,4,5-trimethoxyphenyl)-2-((3-(bis(2-hydroxyethyl)amino)propionamide)-4-ethoxyphenyl)ethylene], for which the inhibition in vivo at 50 mg/kg in series [2] came to 88%; in series [3], 65%; in series [4], 63%; in the series with colon cancer cells HT-29, 89%.

As for `CCOc1ccc(/C=C\c2cc(OC)c(OC)c(OC)c2)cc1NC(=O)CCNCC(F)F` [Hydrochloride of Example 13], the LD50 in series [1] was 1000 mg/kg.

Regarding `COc1ccc(/C=C\c2cc(OC)c(OC)c(OC)c2)cc1NC(=O)CCN(CCO)CCO` [Hydrochloride of Example 12], the median lethal dose (LD50) in series [1] amounted to 1100 mg/kg.

Consider `CCCN(CCC)CCC(=O)Nc1cc(/C=C\c2cc(OC)c(OC)c(OC)c2)ccc1OC` [Example 3, (Z)-1-(3,4,5-trimethoxyphenyl)-2-((3-(bis(2-n-propyl)amino)propionamide)-4-methoxyphenyl)ethylene], for which the inhibition in vivo at 50 mg/kg in series [2] stood at 89%; in series [3] it was 78%; in series [4], 65%; in the series on colon cancer cells HT-29, 88%.

As for `CCCCN(CCCC)CCC(=O)Nc1cc(/C=C\c2cc(OC)c(OC)c(OC)c2)ccc1OCC` [Example 5, (Z)-1-(3,4,5-trimethoxyphenyl)-2-((3-(bis(2-n-butyl)amino)propionamide)-4-ethoxyphenyl)ethylene], the inhibition in vivo at 50 mg/kg was 88% in series [2], 80% in series [3], 63% in series [4] and 82% in the series with colon cancer cells HT-29.

`CCCN(CCC)CCC(=O)Nc1cc(/C=C\c2cc(OC)c(OC)c(OC)c2)ccc1OC(F)F` [Example 8, (Z)-1-(3,4,5-trimethoxyphenyl)-2-((3-(bis(2-n-propyl)amino)propionamide)-4-difluoromethoxyphenyl)ethylene]: the inhibition in vivo at 50 mg/kg in series [2] is 90%; in series [3], 71%; in series [4], 67%; in the series with colon cancer cells HT-29 it was 88%.

Regarding `CCCCN(CCCC)CCC(=O)Nc1cc(/C=C\c2cc(OC)c(OC)c(OC)c2)ccc1OC` [Example 6, (Z)-1-(3,4,5-trimethoxyphenyl)-2-((3-(bis(2-n-butyl)amino)propionamide)-4-methoxyphenyl)ethylene], the inhibition in vivo at 50 mg/kg in series [2] was 89%; in series [3], 81%; in series [4] it was 62%; in the series on colon cancer cells HT-29, 90%.

Consider `CCCCN(CCCC)CCC(=O)Nc1cc(/C=C\c2cc(OC)c(OC)c(OC)c2)ccc1OCC(F)(F)F` [Example 9, (Z)-1-(3,4,5-trimethoxyphenyl)-2-((3-(bis(2-n-butyl)amino)propionamide)-4-trifluoroethoxyphenyl)ethylene], for which the inhibition in vivo at 50 mg/kg in series [2] is 79%; in series [3] it was 80%; in series [4], 61%; in the series on colon cancer cells HT-29 it was 85%.

Usually LD50 stands for the dose expected to kill half of the subjects tested.

(Values after US20250074869A1, “AMINO-COMBRETASTATIN DERIVATIVE AND USE THEREOF” (priority 2020, published 2025).)
